US20050215635A1, “Diarylheptanoid compounds and uses thereof” (priority 2004, published 2005)

How the values were obtained:
p38 MAPK phosphorylation = experiment: Western blotting of LPS induced phosphorylation of p38 MAPK in RAW 264.7 cells; assay type: cell-based, mouse; conditions: HMP 25 μM + LPS (0.5 μg/ml), RAW 264.7, 30 min and 60 min
Protocol: FIG. 5A and 5B. Effect of HMP on LPS induced MAPKs activation. FIG. 5A, Total protein lysates of RAW 264.7 were prepared after treatment with HMP and/or LPS for indicated times and 40 μg of protein lysates were resolved and probed for phosphorylated (pp44/42 and pp38) and basal p44/42 and p38, using specific monoclonal antibodies as described in material and methods. FIG. 5B, Integrated density of phosphorylated p44/42 (pp44/42) as measured by Scion software. This experiment was repeated 4 times with similar results.
At indicated time points, cells were rapidly washed with ice-cold PBS and solubilized in cold lysis buffer containing 10 mM Tris-base, 5 mM EDTA, 50 mM NaCl, 1% Triton X-100, 5 mM phenylmethylsulfonyl fluoride (PMSF), 2 mM sodium orthovanadate, 10 μg/ml leupeptin, 25 μg/ml aprotinin, 1 mM sodium pyrophosphate, and 20% glycerol. […]
Equal amount of protein (40 μg) from each sample was loaded on SDS-polyacrylamide electrophoresis gel (8 and 10% separating gels for iNOS and p42/44^MAPK, respectively) and resolved for 1.5 h at 120 V in buffer containing 95 mM Tris-HCl, 960 mM glycine, and 0.5% SDS. […] Specific bands were detected by enhanced chemiluminescence's detection system (Amersham-Pharmacia biotech, NJ, USA) and the membrane was exposed to X-ray film. […]

COX-2 mRNA expression = experiment: Relative RT-PCR of COX-2 mRNA expression in RAW 264.7 cells; assay type: cell-based, mouse; conditions: RAW 264.7, 12 hrs
Protocol: (§1) FIG. 4A and B: Effect of HMP on mRNA expression of iNOS and COX-2. Fig. A, RAW 264.7 cells were incubated in the presence of LPS (0.5 μg/ml) with or without HMP (12.5, 25 μM) for 12 hrs. Total RNA isolated from RAW 264.7 cells after 12 hrs of treatments with LPS alone or with various concentration of HMP was reverse transcribed to make cDNA and 2 μl (for iNOS) or 1 μl (for COX-2) of cDNA was amplified using gene specific primer (Ambion Inc). Ten μl of each PCR reaction was resolved in 2% agarose gel. Lane 1, control; 2. LPS (0.5 μg/ml); 3, LPS+HMP (12.5 μM) and Lane, 4 LPS+HMP (25 μM). Fig. B, Histogram showing densitometric analysis of iNOS and COX-2 mRNA expression. […] This experiment was repeated 3 times separately with similar observation.
(§2) The RAW 264.7 cells were cultured (10^6/well) in 6 well plate for 24 hrs and then medium was replaced by fresh medium and different concentrations of HMP either alone or in combination of LPS was added and further cultured for 12 hrs. […] Linear range of amplification of iNOS and COX-2 cDNA (2 μl for COX-2 and 1μl for iNOS of RT reaction mixture) was determined using gene specific primers from Ambion Inc (TX, USA), following manufacturer's instruction. The optimum amount of 18S primer and competitor for iNOS and COX-2 gene were also determined as per manufacturer's instruction. […]

[1] = tested on: IL-1β production from human PBMCs; experiment: IL-1β ELISA in supernatants of LPS-treated human PBMCs; assay type: cell-based; conditions: 18 hrs
Protocol: (§3) The PBMCs were separated from peripheral blood of normal healthy human volunteers. […] Supernatant was harvested after 18 hrs and stored at −70° C. until tested. The quantity of IL-1β and TNF-α present in supernatants was estimated by ELISA (R&D systems, MN, USA) following manufacturer's instruction. A standard curve was obtained by plotting known concentrations of recombinant human IL-1β and TNF-α vs absorbance at 450 nm.
(§4) Each data point represents mean+standard deviation (SD) of 3 replicates.

iNOS mRNA expression = experiment: Relative RT-PCR of iNOS mRNA expression in RAW 264.7 cells; assay type: cell-based, mouse; conditions: RAW 264.7, 12 hrs
Protocol: as §1, §2

[2] = tested on: TNF-α production from human PBMCs; experiment: TNF-α ELISA in supernatants of LPS-treated human PBMCs; assay type: cell-based; conditions: 18 hrs
Protocol: as §3, §4

For `COc1cc(CC/C=C/C(=O)CCc2ccccc2)ccc1O` [AO-4, 7-(4″-hydroxy-3″-methoxyphenyl)-1-phenyl-hept-4-en-3-one], the “LPS induced phosphorylation of p38 (in words)” value (p38 MAPK phosphorylation) was “no effect”, the “inhibition of LPS induced COX-2 mRNA expression (densitometry, ratio to 18 S RNA)” value (COX-2 mRNA expression; HMP 12.5 μM + LPS (0.5 μg/ml)) was 27.3% and the “inhibition of LPS induced COX-2 mRNA expression (densitometry, ratio to 18 S RNA)” value (COX-2 mRNA expression; HMP 25 μM + LPS (0.5 μg/ml)) was 54.6%. The “IL-1β” value ([1]; HMP 6.25 μM + LPS (10 ng/ml)) was 339.21 ± 10.53 pg/mL, the “IL-1β” value ([1]; HMP 6.25 μM alone) was 22.12 ± 3.33 pg/mL and the “IL-1β” value ([1]; HMP 12.5 μM + LPS (10 ng/ml)) was 113.43 ± 3.81 pg/mL. The “IL-1β” value ([1]; HMP 12.5 μM alone) was 24.45 ± 1.03 pg/mL, the “IL-1β” value ([1]; HMP 25 μM + LPS (10 ng/ml)) was 77.27 ± 4.6 pg/mL and the “IL-1β” value ([1]; HMP 25 μM alone) was 23.28 ± 1.41 pg/mL. The “LPS induced secretion of IL-1β (in words)” value ([1]; HMP 6.25-25 μM + LPS) was “significantly in dose dependent fashion”, the “inhibition of LPS induced iNOS mRNA expression (densitometry, ratio to 18 S RNA)” value (iNOS mRNA expression; HMP 12.5 μM + LPS (0.5 μg/ml)) was 47.8% and the “inhibition of LPS induced iNOS mRNA expression (densitometry, ratio to 18 S RNA)” value (iNOS mRNA expression; HMP 25 μM + LPS (0.5 μg/ml)) was 75.5%. For the same molecule, the “TNF-α” value ([2]; HMP 6.25 μM + LPS (10 ng/ml)) was 342.24 ± 11.50 pg/mL, the “TNF-α” value ([2]; HMP 6.25 μM alone, detection limit 15.62 pg/ml) was <15.62 pg/mL and the “TNF-α” value ([2]; HMP 12.5 μM + LPS (10 ng/ml)) was 298.49 ± 5.47 pg/mL. For the same molecule, the “TNF-α” value ([2]; HMP 12.5 μM alone, detection limit 15.62 pg/ml) was <15.62 pg/mL, the “TNF-α” value ([2]; HMP 25 μM + LPS (10 ng/ml)) was 165.38 ± 8.48 pg/mL and the “TNF-α” value ([2]; HMP 25 μM alone, detection limit 15.62 pg/ml) was <15.62 pg/mL. For the same molecule, the “inhibition of LPS induced TNF-α (in words)” value ([2]; HMP 6.25-25 μM + LPS) was “only at 25 μM concentration”.
